Test results published in patent EP4052593B1, “TOBACCO FILLER FOR HEAT-NOT-BURN TOBACCO PRODUCTS, HEAT-NOT-BURN TOBACCO PRODUCT, AND ELECTRICALLY HEATED TOBACCO PRODUCT” (Japan Tobacco Inc., priority 2019, dated 2021).

How the values were obtained:
[1] = Measurement of solubility in glycerin (GC-FID); assay type: physicochemical; conditions: Experimental Example 1, excess fatty acid in 2 g glycerin, standing 48 hours
Procedure: The solubility in glycerin is most preferably measured by a method for quantitatively determining a fatty acid dissolved in 2 g of glycerin. Specifically, after an excessive amount of a fatty acid is added to glycerin, the mixture is separated into two layers, for example, by standing at ordinary temperature for 24 hours or more or by centrifugal separation, 100 mg aliquot of glycerin is taken, and transferred and dissolved into 2 mL of methanol, and the amount of fatty acid dissolved in glycerin is quantitatively determined by gas chromatograph-flame ionized detector (GC-FID) or gas chromatograph-mass spectrometer (GC-MS).
If the amount of fatty acid excessively added is large, the separation into two layers becomes difficult, and thus it is necessary to add the fatty acid in a slightly excessive amount.

[2] = Measurement of count median diameter of residual aerosol in dilution with DMS (differential mobility spectrometer); assay type: physicochemical; conditions: for Count median diameter: Experimental Example 1, DMS, reduced pressure 0.25 bar, primary dilution 25 L/min, secondary dilution 200-fold, weight addition ratio of Table 1; for count median diameter (result in words): Experimental Example 1, DMS
Source text: Since the DMS measures an aerosol under reduced pressure (0.25 bar) and a high dilution condition, an aerosol with high volatility is easily vanished and gasified. In the case of an aerosol with relatively low volatility, a particle diameter distribution is obtained in terms of residual aerosol, although the aerosol is reduced by volatilization. In this case, if the diameters of generated aerosol particles are the same, the particle diameter distribution of the residual aerosol varies depending of the level of volatility. In this Example, a peak particle diameter based on the number is considered to indicate the stability under reduced pressure and a high dilution condition and thus is used as the index. A larger count median diameter means that an aerosol is more stably present, and a smaller count median diameter means that an aerosol is more unstable. Under the conditions of this experiment, the primary dilution was performed at 25 L/min, and the secondary dilution was set to 200-fold and performed. Note that a mass peak particle diameter immediately after the generation before dilution and pressure reduction were involved was also separately measured with Spraytec (Model STP5321, Malvern), and, in the types of additives and the range of the amounts of additives added in this Example, there was no difference, and the count median diameters were present at about 200 nm.

Solubility in glycerin [1]	Count median diameter [2]	count median diameter (result in words) [2]	Compound
0.14 mg/g	61.9 nm		CCCCC/C=C\C/C=C\CCCCCCCC(=O)O [Comparative Example 7, Linoleic acid]
0.14 mg/g	51.6 nm		CCCCCCCCCCCCCC(=O)O [Comparative Example 4, Myristic acid]
	75.3 nm	large count median diameters	CCCCCCCCCCCCCCCCCC(=O)O [Example 2, Stearic acid]
	38.7 nm		CCCCCCCC(=O)O [Comparative Example 2, Octanoic acid]
1.82 mg/g	55.1 nm		CCCCCCCC/C=C\CCCCCCCC(=O)O [Comparative Example 8, Oleic acid]
0.09 mg/g	74.6 nm		CCCCCCCCCCCCCCCCCCC(=O)O [Comparative Example 5, Nonadecanoic acid]
	50.5 nm		CCCCCCCCCC(=O)O [Comparative Example 3, Decanoic acid]
		large count median diameters	CCCCCCCCCCCCCCCC(=O)O [palmitic acid]
0.32 mg/g			CC/C=C\C/C=C\C/C=C\CCCCCCCC(=O)O [Comparative Example 6, Linolenic acid]
	67.8 nm		CCCCCCCCCCCCCCCC(=O)O [Example 1, Palmitic acid]
